Data reported in patent US20260184697A1, “EZH1/2 INHIBITOR, PREPARATION THEREOF, AND USE THEREOF IN ANTI-TUMOR THERAPY” (JIANGSU TASLY DIYI PHARMACEUTICAL CO., LTD., priority 2022, published 2026).
Like-named read-outs stand apart in the source and are kept apart here.

Columns and labels:
[1] = system: H3K27Me3 methylation in Karpas-422 cells; test: H3K27Me3 cell method, inhibition of H3K27Me3 methylation (Test Example 2); type: cell-based, human; details: Homo sapiens, KARPAS-422, 72 h
Method in brief: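 Karpas-422 cells, 15,000/well in 80% RPMI 1640 + 20% FBS, treated with compound dilutions (final DMSO 0.2%) for 3 days at 37 °C, 5% CO2. Cellular H3K27Me3 read by HTRF; viability in parallel by CCK8 at OD405. IC50 from log(inhibitor)-response variable-slope fit of inhibition rate.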

[2] = system: Karpas-422 cells; test: Anti-proliferation by Cell Titer-Glo method (Test Example 3); type: cell-based; details: Homo sapiens
Protocol: Karpas-422 (Nanjing Kebai, CBP60629) cells were seeded in a 96-well plate (Corning, 3894) at 1,000 cells per well in growth medium (80% 1640 (Hyclone, SH30809.01)+20% FBS (Corning, 35-081-CV)), in a total of 100 μL, and then was added with 25 μL of 5-fold different concentrations of compounds diluted in growth medium. The cell growth group without compound addition was used as a positive control (maximum signal control), and the medium was used as a negative control (minimum signal control), while ensuring that the final contration of DMSO in each reaction well was 0.2%. Then the 96-well cell plate was placed in a cell culture incubator (37° C., 5% CO2) and incubated for 3 days. On the fourth day, the cell culture plate was taken out of the incubator, using a row gun to gently blow the cells up and down to mix, removing 62.5 μL of the cell suspension, adding 50 μL of growth medium and 12.5 μL of compounds of 5 times different concentrations, and then putting them in the cell incubator to incubate for 4 days. On the eighth day, the same method was used as the fourth day to treat the cells, then incubating in the cell culture incubator for 3 days. On the eleventh day, the Cell-Titer Glo (Promega, G7573) was used to detect cell viability, and a microplate reader was used to detect the signal value of luminescence.
The inhibition rate of different concentrations of compounds on cells was calculated as inhibition rate=[1−(compound signal value−negative control signal value)/(positive control signal value-negative control signal value)][…]. The IC50 of the compound on cell activity inhibition was calculated by GraphPad Prism 6 with log(inhibitor) vs. response-Variable slope model fitting. The fitting equation is: Y=Bottom+(Top−Bottom)/(1+10^((Log IC50−X)*Hill Slope)), wherein Y represents the inhibition rate, and X represents the known concentration of the compound after Log.

[3] = target: T1, EZH1/SUZ/EED (Homo sapiens, UniProt O75530+Q15022+Q92800); test: Inhibitory effect on EZH1 by the MTase-Glo method (Test Example 1); type: biochemical; details: EZH1/SUZ/EED 25 nM, H3 peptide 10 μM, SAM 3 μM, 30° C. 3 h, read-out: Test Example 1 WT EZH1 IC50
T1 construct: purchased BPS 51006
Method in brief: (§1)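 EZH2/SUZ/EED (6.25 nM) or EZH1/SUZ/EED (25 nM) pre-incubated 15 min with compound in pH 7.6 Bicine buffer, 0.5% DMSO. Biotinylated H3(21-44) peptide 10 μM plus SAM 3 μM reacted 3 h at 30 °C; MTase-Glo luminescence normalized to controls, IC50 from variable-slope fit.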

[4] = target: T2, EZH2/SUZ/EED (Homo sapiens, UniProt O75530+Q15022+Q15910); test: Inhibitory effect on EZH2 by the MTase-Glo method (Test Example 1); type: biochemical; details: EZH2/SUZ/EED 6.25 nM, H3 peptide 10 μM, SAM 3 μM, 30° C. 3 h, read-out: Test Example 1 WT EZH2 IC50
T2 construct: purchased BPS 51003
Method in brief: as §1

[5] = Karpas-422 cells, 3 days incubation, HTRF signal, read-out: Test Example 2 H3K27Me3 inhibition (Karpas-422) IC50
[6] = Karpas-422 cells, Cell-Titer Glo on the eleventh day, read-out: Test Example 3 Karpas-422 cell anti-proliferation IC50
[7] = read-out: Test Example 2 H3K27Me3 inhibition (Karpas-422) IC50(nM)
[8] = KARPAS-422, read-out: Test Example 3 Karpas-422 cell anti-proliferation IC50(nM)

T1 sequence (Q92800 2-747 limits assumed): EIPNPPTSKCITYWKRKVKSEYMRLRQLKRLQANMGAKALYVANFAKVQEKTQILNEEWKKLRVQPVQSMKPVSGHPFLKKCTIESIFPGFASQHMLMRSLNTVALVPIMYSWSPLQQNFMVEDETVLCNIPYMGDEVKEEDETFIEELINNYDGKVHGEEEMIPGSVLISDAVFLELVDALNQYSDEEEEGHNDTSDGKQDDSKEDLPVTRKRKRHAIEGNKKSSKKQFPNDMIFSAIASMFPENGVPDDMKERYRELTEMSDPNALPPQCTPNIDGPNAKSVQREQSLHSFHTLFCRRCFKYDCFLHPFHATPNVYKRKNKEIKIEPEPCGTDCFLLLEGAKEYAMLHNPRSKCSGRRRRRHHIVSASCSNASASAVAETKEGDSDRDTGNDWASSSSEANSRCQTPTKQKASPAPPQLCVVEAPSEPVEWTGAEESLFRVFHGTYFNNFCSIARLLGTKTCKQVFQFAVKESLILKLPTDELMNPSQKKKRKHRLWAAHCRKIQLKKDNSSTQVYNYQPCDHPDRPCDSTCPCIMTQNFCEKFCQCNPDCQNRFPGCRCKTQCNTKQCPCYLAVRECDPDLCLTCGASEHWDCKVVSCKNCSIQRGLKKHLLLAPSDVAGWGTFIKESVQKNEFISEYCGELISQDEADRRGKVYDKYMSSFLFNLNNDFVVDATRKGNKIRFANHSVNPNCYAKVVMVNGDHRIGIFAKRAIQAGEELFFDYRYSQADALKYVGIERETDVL
T1 sequence (Q15022 2-739 partner limits assumed): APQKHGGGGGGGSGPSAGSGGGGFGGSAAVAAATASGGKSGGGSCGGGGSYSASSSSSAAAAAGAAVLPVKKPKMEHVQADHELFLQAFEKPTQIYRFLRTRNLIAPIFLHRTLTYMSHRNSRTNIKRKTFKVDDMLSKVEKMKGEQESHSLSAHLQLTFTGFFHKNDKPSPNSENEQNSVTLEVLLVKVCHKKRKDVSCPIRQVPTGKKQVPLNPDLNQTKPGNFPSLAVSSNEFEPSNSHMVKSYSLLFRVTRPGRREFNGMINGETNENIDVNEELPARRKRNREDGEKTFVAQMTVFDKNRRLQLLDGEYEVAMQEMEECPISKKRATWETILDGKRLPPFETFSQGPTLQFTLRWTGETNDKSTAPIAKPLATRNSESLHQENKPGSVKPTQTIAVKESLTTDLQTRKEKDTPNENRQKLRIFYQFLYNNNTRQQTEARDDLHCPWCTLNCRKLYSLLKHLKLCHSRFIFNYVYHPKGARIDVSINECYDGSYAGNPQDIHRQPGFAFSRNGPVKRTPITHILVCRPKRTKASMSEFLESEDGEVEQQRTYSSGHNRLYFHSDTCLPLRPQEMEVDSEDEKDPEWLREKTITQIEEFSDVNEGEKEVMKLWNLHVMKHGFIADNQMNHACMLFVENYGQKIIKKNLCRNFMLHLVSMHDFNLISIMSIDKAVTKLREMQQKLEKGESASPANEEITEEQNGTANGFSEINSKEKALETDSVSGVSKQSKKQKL
T1 sequence (O75530 2-441 partner limits assumed): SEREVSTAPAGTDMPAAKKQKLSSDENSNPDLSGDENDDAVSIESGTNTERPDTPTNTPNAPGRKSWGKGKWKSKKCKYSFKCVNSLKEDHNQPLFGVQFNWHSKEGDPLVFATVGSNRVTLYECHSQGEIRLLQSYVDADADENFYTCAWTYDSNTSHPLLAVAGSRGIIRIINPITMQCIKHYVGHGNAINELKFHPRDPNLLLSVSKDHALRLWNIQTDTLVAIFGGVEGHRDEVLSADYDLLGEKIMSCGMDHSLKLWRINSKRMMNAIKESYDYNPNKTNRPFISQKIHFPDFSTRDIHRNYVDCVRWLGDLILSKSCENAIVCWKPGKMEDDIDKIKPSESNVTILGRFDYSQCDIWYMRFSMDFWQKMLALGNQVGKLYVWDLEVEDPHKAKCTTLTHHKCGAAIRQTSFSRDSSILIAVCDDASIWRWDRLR
T2 sequence (Q15910 2-746 limits assumed): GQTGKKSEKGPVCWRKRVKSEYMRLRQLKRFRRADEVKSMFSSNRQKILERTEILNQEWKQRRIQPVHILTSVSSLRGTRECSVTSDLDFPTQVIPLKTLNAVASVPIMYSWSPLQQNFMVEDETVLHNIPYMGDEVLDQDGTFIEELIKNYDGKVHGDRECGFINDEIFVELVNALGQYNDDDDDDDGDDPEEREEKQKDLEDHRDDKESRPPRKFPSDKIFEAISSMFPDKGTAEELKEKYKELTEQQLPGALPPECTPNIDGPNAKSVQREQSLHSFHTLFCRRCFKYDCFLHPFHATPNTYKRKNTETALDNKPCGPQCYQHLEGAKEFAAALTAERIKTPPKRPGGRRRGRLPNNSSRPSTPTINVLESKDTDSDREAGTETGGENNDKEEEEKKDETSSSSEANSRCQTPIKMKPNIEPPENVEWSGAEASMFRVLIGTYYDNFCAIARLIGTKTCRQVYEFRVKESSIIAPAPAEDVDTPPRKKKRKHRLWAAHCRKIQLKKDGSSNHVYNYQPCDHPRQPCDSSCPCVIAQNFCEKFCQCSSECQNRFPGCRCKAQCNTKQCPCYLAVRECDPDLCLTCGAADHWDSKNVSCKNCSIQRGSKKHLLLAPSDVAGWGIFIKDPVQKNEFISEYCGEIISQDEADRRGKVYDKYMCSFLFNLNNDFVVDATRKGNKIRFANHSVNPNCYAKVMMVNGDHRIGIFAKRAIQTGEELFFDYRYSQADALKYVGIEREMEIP
T2 sequence (Q15022 2-739 partner limits assumed): as the sequence (Q15022 2-739 partner limits assumed) above
T2 sequence (O75530 2-441 partner limits assumed): as the sequence (O75530 2-441 partner limits assumed) above

| Compound | IC50 [1, 5] [nM] | IC50 [2, 6] [nM] | IC50 [3] [nM] | IC50 [4] [nM] | IC50 [1, 7] [nM] | IC50 [2, 8] [nM] |
| --- | --- | --- | --- | --- | --- | --- |
| Cc1cc(C)c(CNC(=O)c2cc(Cl)c3c(c2C)O[C@H]([C@H]2CC[C@@H](N(C)C)CC2)CO3)c(=O)[nH]1 [Compound 54] | > 1000 | > 1000 | 400 | 250 |  |  |
| Cc1cc(C)c(CNC(=O)c2cc(Cl)c3c(c2C)OC[C@@H]([C@H]2CC[C@@H](N(C)C)CC2)O3)c(=O)[nH]1 [Compound 55] | 19.4 | 47.3 | 150 | 4.5 |  |  |
| Cc1cc(C)c(CNC(=O)c2cc(Cl)c3c(c2C)OC[C@H]([C@H]2CC[C@@H](N(C)C)CC2)O3)c(=O)[nH]1 [Compound 56] | 944 | > 1000 | 810 | 340 |  |  |
| Cc1cc(C)c(CNC(=O)c2cc(Cl)c3c(c2C)OC(C2CCC(N4CCCC4)CC2)CO3)c(=O)[nH]1 (stereo not shown) [Compound 63] | 616 | 341 | 375 | 11.5 |  |  |
| COc1cc(C)[nH]c(=O)c1CNC(=O)c1cc(Cl)c2c(c1C)O[C@@H]([C@H]1CC[C@@H](N(C)C)CC1)CO2 [Compound 94] | 2.8 | 5.1 | 8.1 | 3 |  |  |
| COc1cc(C)[nH]c(=O)c1CNC(=O)c1cc(Cl)c2c(c1C)O[C@@H]([C@H]1CC[C@@H](N3CC(OC)C3)CC1)CO2 [Compound 97] | 8.2 | 5.3 | 15.2 | 3.25 |  |  |
| COCCOC1CN([C@H]2CC[C@@H]([C@H]3COc4c(Cl)cc(C(=O)NCc5c(OC)cc(C)[nH]c5=O)c(C)c4O3)CC2)C1 [Compound 101] | 2.2 | 3.8 | 5.5 | 3.1 |  |  |
| COc1cc(C)[nH]c(=O)c1CNC(=O)c1cc(Cl)c2c(c1C)O[C@@H]([C@H]1CC[C@@H](N3CC(OCCF)C3)CC1)CO2 [Compound 109] | 1.8 | 2.5 | 3.8 | 2 |  |  |
| Cc1cc(C)c(CNC(=O)c2c(C)c3c(c(Cl)c2F)OC[C@H](C2CCC(N(C)C)CC2)O3)c(=O)[nH]1 (stereo partly shown) [Compound 130] |  |  | 201 | 12.6 | 209 | 115 |
| Cc1cc(C)c(CNC(=O)c2cc(Cl)c3c(c2Cl)O[C@@H]([C@H]2CC[C@@H](N(C)C)CC2)CO3)c(=O)[nH]1 [Compound 143] |  |  | 39.9 | 5.5 | 22 | 10.7 |
| COC1CN([C@H]2CC[C@@H]([C@H]3COc4c(Cl)cc(C(=O)NCc5c(SC)cc(C)[nH]c5=O)c(Cl)c4O3)CC2)C1 [Compound 149] | 3.6 | 2.7 | 3.3 | 2.3 |  |  |
| COC1CN([C@H]2CC[C@@H]([C@H]3COc4c(C#N)cc(C(=O)NCc5c(SC)cc(C)[nH]c5=O)c(C)c4O3)CC2)C1 [Compound 153] | 6.2 | 3.7 | 6.9 | 3.2 |  |  |
| CSc1cc(C)[nH]c(=O)c1CNC(=O)c1cc(C#N)c2c(c1C)O[C@@H]([C@H]1CC[C@@H](N3CC(OC4CC4)C3)CC1)CO2 [Compound 159] | 1.4 | 2.3 | 7 | 1.1 |  |  |
| CSc1cc(C)[nH]c(=O)c1CNC(=O)c1cc(C#N)c2c(c1C)O[C@@H]([C@H]1CC[C@@H](N3CC(OCCF)C3)CC1)CO2 [Compound 161] | 2.2 | 2.4 | 5.5 | 3.7 |  |  |
| COC1CN([C@H]2CC[C@@H]([C@H]3COc4c(F)cc(C(=O)NCc5c(SC)cc(C)[nH]c5=O)c(C)c4O3)CC2)C1 [Compound 169] | 4.2 | 1.8 | 5.8 | 6 |  |  |
| COC1CN([C@H]2CC[C@@H]([C@H]3COc4c(Cl)cc(C(=O)NCc5c(Cl)cc(C)[nH]c5=O)c(C)c4O3)CC2)C1 [Compound 175] | 16.1 | 13.6 | 16.6 | 3.4 |  |  |
